Numbered stars: 1 amine (or outer) side, 2 acyl side, 3 side chain; on linkers, the order of the positions; unused ones are H or OH. Bridge positions count the residues as written; N and C are the ends. Square brackets hold non-standard residues; d marks the D form. Peptide text beside a SMILES is read from it. Trp(βS-Me,7-OMe) = COc1cccc2c([C@H](C)[C@H](N)C(=O)O)c[nH]c12; dPro(trans-4-NMe2) = CN(C)[C@@H]1CN[C@@H](C(=O)O)C1; Trp(7-CN) = N#Cc1cccc2c(C[C@H](N)C(=O)O)c[nH]c12; Trp(7-Cl) = N[C@@H](Cc1c[nH]c2c(Cl)cccc12)C(=O)O; Phe(3-CONH2) = NC(=O)c1cccc(C[C@H](N)C(=O)O)c1; Phe(4-CONH2) = NC(=O)c1ccc(C[C@H](N)C(=O)O)cc1; Phe(4-COOH) = N[C@@H](Cc1ccc(C(=O)O)cc1)C(=O)O; Trp(7-aza) = N[C@@H](Cc1c[nH]c2ncccc12)C(=O)O; dPro(4S-NH2) = N[C@@H]1CN[C@@H](C(=O)O)C1; Pip(5R-OH) = O=C(O)[C@@H]1CC[C@@H](O)CN1; αMeW = C[C@](N)(Cc1c[nH]c2ccccc12)C(=O)O; X1 = O=C([C@@H]1CC[C@H](N[*:1])C1)[*:2]; 4Pal = N[C@@H](Cc1ccncc1)C(=O)O; NMeE = CN[C@@H](CCC(=O)O)C(=O)O; dHyp = O=C(O)[C@H]1C[C@H](O)CN1; Ahp(2) = CCCCC[C@H](N)C(=O)O; Dap(Me) = CNC[C@H](N)C(=O)O; αMeS = C[C@](N)(CO)C(=O)O; Nle = CCCC[C@H](N)C(=O)O; Sar = CNCC(=O)O
Tests used:
[1] = biological target: T1, human TNFR1 extracellular domain (ECD) protein (Homo sapiens, UniProt P19438); assay: SPR binding affinity to captured human TNFR1 ECD
T1 construct: HRV 3C protease cleavage site (C); 6His (C, cleaved yes); made in house; host or cells: Sf21 insect cells (baculovirus), secreted
T1 sequence (P19438 30-211): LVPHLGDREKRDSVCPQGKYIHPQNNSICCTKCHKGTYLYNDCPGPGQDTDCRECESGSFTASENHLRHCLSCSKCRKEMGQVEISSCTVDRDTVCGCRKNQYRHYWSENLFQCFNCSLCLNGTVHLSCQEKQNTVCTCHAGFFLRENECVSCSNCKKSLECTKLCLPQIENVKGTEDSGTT
Method in brief: (§1)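 Insect-cell human receptor ECDs, enzymatically biotinylated, immobilized via streptavidin capture chip. Peptide binding and dissociation measured in RU in pH 7.4 HEPES buffer containing 2% DMSO; chip regenerated per analyte. Rate constants give affinity.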

human TNFR2 ECD protein = biological target: T2, human TNFR2 ECD protein (Homo sapiens, UniProt P20333); assay: SPR off-target binding (selectivity) to human TNFR2 ECD
T2 construct: HRV 3C protease cleavage site (C); 6His (C, cleaved yes); made in house; host or cells: Sf21 insect cells (baculovirus), secreted
T2 sequence (P20333 23-257): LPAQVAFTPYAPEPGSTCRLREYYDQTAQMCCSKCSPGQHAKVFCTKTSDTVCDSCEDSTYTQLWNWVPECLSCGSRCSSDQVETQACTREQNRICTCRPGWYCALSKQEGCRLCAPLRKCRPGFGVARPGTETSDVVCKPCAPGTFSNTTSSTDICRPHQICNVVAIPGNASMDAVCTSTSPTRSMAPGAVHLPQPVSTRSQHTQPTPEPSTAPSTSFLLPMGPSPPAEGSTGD
Method in brief: as §1

[2] = biological target: T3, TNFα-induced NF-κB signal transduction pathway (TNFR1 signaling) in THP-1 cells (Homo sapiens, UniProt P19438); assay: THP-1 Lucia NF-κB reporter cell assay, inhibition of TNFα-induced NF-κB signaling; format: cell-based; settings: THP-1 NF-κB Lucia reporter cells, 10 ng/mL TNFα, 16-18 h, secreted luciferase; read-out: THP-1 IC50
T3 sequence (P19438 30-455): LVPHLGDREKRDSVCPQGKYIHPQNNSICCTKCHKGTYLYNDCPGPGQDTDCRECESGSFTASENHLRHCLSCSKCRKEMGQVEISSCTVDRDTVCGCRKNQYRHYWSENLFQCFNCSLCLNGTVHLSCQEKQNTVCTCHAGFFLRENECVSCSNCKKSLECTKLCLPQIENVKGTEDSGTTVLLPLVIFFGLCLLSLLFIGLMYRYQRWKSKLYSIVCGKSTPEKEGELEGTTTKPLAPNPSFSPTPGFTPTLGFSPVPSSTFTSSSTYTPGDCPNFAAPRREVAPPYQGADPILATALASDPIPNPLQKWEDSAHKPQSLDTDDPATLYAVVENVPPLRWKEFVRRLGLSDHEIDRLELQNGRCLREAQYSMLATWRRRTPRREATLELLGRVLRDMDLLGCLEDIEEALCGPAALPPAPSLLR
Method in brief: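 THP-1 Lucia NF-κB cells, 20k/well, no selection antibiotics; peptide pre-inc 1 h 37 °C; + recombinant human TNFα 10 ng/mL final; o.n.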

| Structure (SMILES) | Kd [1] | Kd (human TNFR2 ECD protein) | IC50 [2] |
| --- | --- | --- | --- |
| CN1CC(=O)N[C@@H](Cc2c[nH]c3ccccc23)C(=O)N[C@H](C(N)=O)CSCC(=O)N[C@@H](CCCCN)C(=O)N[C@@H](Cc2ccc(O)cc2)C(=O)N[C@@H](CO)C(=O)N[C@@H](Cc2c[nH]c3ccccc23)C(=O)N2CCC[C@@H]2C(=O)N[C@@H](CCC(N)=O)C(=O)N[C@@H](Cc2ccncc2)C(=O)N[C@@H](Cc2c[nH]c3ccccc23)C(=O)N[C@@](C)(CO)C(=O)N[C@@H](Cc2ccc(C(=O)O)cc2)C(=O)N[C@@H](Cc2ccc(O)cc2)C1=O [SEQ ID NO. 242] ({CH2CO}-KYSW[dP]Q[4Pal]W[αMeS][Phe(4-COOH)]Y[Sar]WC-NH2; thioether N-14) | 0.3 nM | > 1000 nM | 3 nM |
| CCCCC[C@@H]1NC(=O)[C@@H]2CC[C@@H](C2)NC(=O)[C@H]([C@@H](C)c2c[nH]c3c(OC)cccc23)NC(=O)CN(C)C(=O)[C@H](Cc2cccc(C(N)=O)c2)NC(=O)[C@H](Cc2ccc(C(N)=O)cc2)NC(=O)[C@](C)(CO)NC(=O)[C@H](Cc2c[nH]c3c(C#N)cccc23)NC(=O)[C@H](Cc2ccc(C(=O)O)cc2)NC(=O)[C@H](CC(N)=O)NC(=O)[C@H]2C[C@H](N(C)C)CN2C(=O)[C@H](Cc2c[nH]c3ccccc23)NC(=O)[C@@H]2CC[C@@H](O)CN2C(=O)[C@H](Cc2ccncc2)NC1=O [SEQ ID NO. 128] (cyclo([4Pal][Pip(5R-OH)]W[dPro(trans-4-NMe2)]N[Phe(4-COOH)][Trp(7-CN)][αMeS][Phe(4-CONH2)][Phe(3-CONH2)][Sar][Trp(βS-Me,7-OMe)][X1][Ahp(2)])) | 0.02 nM | > 1000 nM | 0.8 nM |
| CCCC[C@@H]1NC(=O)CSC[C@@H](C(N)=O)NC(=O)[C@](C)(Cc2c[nH]c3ccccc23)NC(=O)CN(C)C(=O)[C@H](Cc2ccc(O)cc2)NC(=O)[C@H](Cc2ccc(C(=O)O)cc2)NC(=O)[C@](C)(CO)NC(=O)[C@H](Cc2c[nH]c3c(Cl)cccc23)NC(=O)[C@H](Cc2ccncc2)NC(=O)[C@H](CC(N)=O)NC(=O)[C@H](CCC(=O)O)N(C)C(=O)[C@H](Cc2c[nH]c3ncccc23)NC(=O)[C@H](CNC)NC(=O)[C@H](Cc2ccncc2)NC1=O [SEQ ID NO. 235] ({CH2CO}-[Nle][4Pal][Dap(Me)][Trp(7-aza)][NMeE]N[4Pal][Trp(7-Cl)][αMeS][Phe(4-COOH)]Y[Sar][αMeW]C-NH2; thioether N-14) | 1.2 nM | > 1000 nM | 5 nM |
| CCCC[C@@H]1NC(=O)[C@@H]2CC[C@@H](C2)NC(=O)[C@H]([C@@H](C)c2c[nH]c3c(OC)cccc23)NC(=O)CN(C)C(=O)[C@H](Cc2ccc(C(N)=O)cc2)NC(=O)[C@H](Cc2ccc(C(N)=O)cc2)NC(=O)[C@](C)(CO)NC(=O)[C@H](Cc2c[nH]c3c(C#N)cccc23)NC(=O)[C@H](Cc2ccc(C(=O)O)cc2)NC(=O)[C@H](CC(N)=O)NC(=O)[C@H]2C[C@H](OC)CN2C(=O)[C@H](Cc2c[nH]c3ccccc23)NC(=O)[C@@H]2CC[C@@H](O)CN2C(=O)[C@H](Cc2ccncc2)NC1=O [SEQ ID NO. 14] (cyclo([4Pal][Pip(5R-OH)]W[dHyp](Me)N[Phe(4-COOH)][Trp(7-CN)][αMeS][Phe(4-CONH2)][Phe(4-CONH2)][Sar][Trp(βS-Me,7-OMe)][X1][Nle])) | 0.02 nM | > 1000 nM | 0.8 nM |
| CCCC[C@@H]1NC(=O)[C@@H]2CC[C@@H](C2)NC(=O)[C@H]([C@@H](C)c2c[nH]c3c(OC)cccc23)NC(=O)CN(C)C(=O)[C@H](Cc2ccc(O)cc2)NC(=O)[C@H](Cc2ccc(C(N)=O)cc2)NC(=O)[C@](C)(CO)NC(=O)[C@H](Cc2c[nH]c3c(Cl)cccc23)NC(=O)[C@H](Cc2ccncc2)NC(=O)[C@H](CC(N)=O)NC(=O)[C@H]2C[C@H](N)CN2C(=O)[C@H](Cc2c[nH]c3ccccc23)NC(=O)[C@@H]2CC[C@@H](O)CN2C(=O)[C@H](Cc2ccncc2)NC1=O [SEQ ID NO. 144] (cyclo([4Pal][Trp(7-Cl)][αMeS][Phe(4-CONH2)]Y[Sar][Trp(βS-Me,7-OMe)][X1][Nle][4Pal][Pip(5R-OH)]W[dPro(4S-NH2)]N)) | 0.1 nM | > 1000 nM | 0.6 nM |

Reference: patent US20240287138A1, “CYCLIC PEPTIDES FOR INHIBITING TNF RECEPTOR 1 ACTIVITY” (Merck Sharp & Dohme LLC, priority 2023, published 2024)
